Data: PubChem BioAssay AID2060612 (Molecular Pharmacology Branch, DTP, NCI, 2025)

Tested on: 565232-114-T-J1-PDC complex spheroid viability
Assay: Anticancer human tumor 565232-114-T-J1-PDC patient-derived bladder carcinoma cell line growth inhibition [CLK]
Details: for IC50: curve of first compound; for viability, T/C: stronger effect = lower value
How it was run: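 Patient-derived tumor cells grown as complex spheroids with HUVEC endothelial cells and mesenchymal stem cells, treated with drug combinations. Concentrations descend in half-log steps from near clinical Cmax, or from 10 microM if Cmax unknown.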

[1] = second compound 0.0316 µM, first compound 0.00316 µM
[2] = second compound 0.0316 µM, first compound 0.01 µM
[3] = second compound 0.0316 µM, first compound 0.0316 µM
[4] = second compound 0.0316 µM, first compound 0.1 µM
[5] = second compound 0.1 µM, first compound 0.00316 µM
[6] = second compound 0.1 µM, first compound 0.01 µM
[7] = second compound 0.1 µM, first compound 0.0316 µM
[8] = second compound 0.1 µM, first compound 0.1 µM
[9] = second compound 0.316 µM, first compound 0.00316 µM
[10] = second compound 0.316 µM, first compound 0.01 µM
[11] = second compound 0.316 µM, first compound 0.0316 µM
[12] = second compound 0.316 µM, first compound 0.1 µM
[13] = second compound 1 µM, first compound 0.00316 µM
[14] = second compound 1 µM, first compound 0.01 µM
[15] = second compound 1 µM, first compound 0.0316 µM
[16] = second compound 1 µM, first compound 0.1 µM
[17] = second compound 3.16 µM, first compound 0.00316 µM
[18] = second compound 3.16 µM, first compound 0.01 µM
[19] = second compound 3.16 µM, first compound 0.0316 µM
[20] = second compound 3.16 µM, first compound 0.1 µM
[21] = second compound 10 µM, first compound 0.00316 µM
[22] = second compound 10 µM, first compound 0.01 µM
[23] = second compound 10 µM, first compound 0.0316 µM
[24] = second compound 10 µM, first compound 0.1 µM
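Note: spheroids exposed to compounds for 7 days before readout.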
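Throughout, for viability, T/C: 100% = DMSO vehicle wells with luminescence normalized to vehicle control.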

What does the source list for `CCc1c2c(nc3ccc(O)cc13)-c1cc3c(c(=O)n1C2)COC(=O)[C@]3(O)CC` + CN1CCN(c2cc(C(=O)Nc3cc4cc(-c5cnn(C)c5)ccc4cn3)ccn2)CC1?
IC50 (second compound 0.0316 µM): 36 nM; IC50 (second compound 0.1 µM): 13.9 nM; IC50 (second compound 0.316 µM): < 3.16 nM; IC50 (second compound 1 µM): < 3.16 nM; IC50 (second compound 3.16 µM): < 3.16 nM; IC50 (second compound 10 µM): < 3.16 nM; viability, T/C [1]: 96.6%; viability, T/C [2]: 61.8%; viability, T/C [3]: 54.6%; viability, T/C [4]: 38.5%; viability, T/C (second compound 0.0316 µM, first compound 0.316 µM): 16.3%; viability, T/C (second compound 0.0316 µM, first compound 1 µM): 5.15%; viability, T/C [5]: 113%; viability, T/C [6]: 48.3%; viability, T/C [7]: 39.1%; viability, T/C [8]: 21.1%; viability, T/C (second compound 0.1 µM, first compound 0.316 µM): 7.93%; viability, T/C (second compound 0.1 µM, first compound 1 µM): 3.53%; viability, T/C [9]: 18.2%; viability, T/C [10]: 17.8%; viability, T/C [11]: 13.5%; viability, T/C [12]: 5.02%; viability, T/C (second compound 0.316 µM, first compound 0.316 µM): 1.56%; viability, T/C (second compound 0.316 µM, first compound 1 µM): 2.33%; viability, T/C [13]: 0.86%; viability, T/C [14]: 0.17%; viability, T/C [15]: 1.6%; viability, T/C [16]: 0.24%; viability, T/C (second compound 1 µM, first compound 0.316 µM): 0.5%; viability, T/C (second compound 1 µM, first compound 1 µM): 1.14%; viability, T/C [17]: 0.22%; viability, T/C [18]: 1%; viability, T/C [19]: 0.2%; viability, T/C [20]: 0.12%; viability, T/C (second compound 3.16 µM, first compound 0.316 µM): 1.33%; viability, T/C (second compound 3.16 µM, first compound 1 µM): 2.74%; viability, T/C [21]: 0.22%; viability, T/C [22]: 1.67%; viability, T/C [23]: 0.18%; viability, T/C [24]: 0.17%; viability, T/C (second compound 10 µM, first compound 0.316 µM): 1.26%; viability, T/C (second compound 10 µM, first compound 1 µM): 0.19%

Which results are given for `Cn1ncnc1[C@H]1c2n[nH]c(=O)c3cc(F)cc(c23)N[C@@H]1c1ccc(F)cc1` + CN1CCN(c2cc(C(=O)Nc3cc4cc(-c5cnn(C)c5)ccc4cn3)ccn2)CC1?
IC50 (second compound 0.0316 µM): > 100 nM; IC50 (second compound 0.1 µM): > 100 nM; IC50 (second compound 0.316 µM): < 0.316 nM; IC50 (second compound 1 µM): < 0.316 nM; IC50 (second compound 3.16 µM): < 0.316 nM; IC50 (second compound 10 µM): < 0.316 nM; viability, T/C (second compound 0.0316 µM, first compound 0.000316 µM): 100%; viability, T/C (second compound 0.0316 µM, first compound 0.001 µM): 76.1%; viability, T/C [1]: 91.5%; viability, T/C [2]: 82.1%; viability, T/C [3]: 135%; viability, T/C [4]: 102%; viability, T/C (second compound 0.1 µM, first compound 0.000316 µM): 86.2%; viability, T/C (second compound 0.1 µM, first compound 0.001 µM): 84.3%; viability, T/C [5]: 111%; viability, T/C [6]: 112%; viability, T/C [7]: 110%; viability, T/C [8]: 90.9%; viability, T/C (second compound 0.316 µM, first compound 0.000316 µM): 16.9%; viability, T/C (second compound 0.316 µM, first compound 0.001 µM): 24%; viability, T/C [9]: 20.2%; viability, T/C [10]: 21.3%; viability, T/C [11]: 21.5%; viability, T/C [12]: 19.5%; viability, T/C (second compound 1 µM, first compound 0.000316 µM): 0.16%; viability, T/C (second compound 1 µM, first compound 0.001 µM): 0.26%; viability, T/C [13]: 1.61%; viability, T/C [14]: 0.19%; viability, T/C [15]: 1.31%; viability, T/C [16]: 0.83%; viability, T/C (second compound 3.16 µM, first compound 0.000316 µM): 0.42%; viability, T/C (second compound 3.16 µM, first compound 0.001 µM): 0.22%; viability, T/C [17]: 2.43%; viability, T/C [18]: 0.14%; viability, T/C [19]: 1.43%; viability, T/C [20]: 2.75%; viability, T/C (second compound 10 µM, first compound 0.000316 µM): 0.15%; viability, T/C (second compound 10 µM, first compound 0.001 µM): 1.85%; viability, T/C [21]: 1.09%; viability, T/C [22]: 1.69%; viability, T/C [23]: 0.53%; viability, T/C [24]: 1.35%
